Where “and” joins values, the source holds several entries; their conditions need not be identical. Equal entries are not always repeated. Structures can show the parent of a compound that is named as a salt.
Experiments:
Th9 cells = experiment: IL-9+ Th9 cells with fatostatin (Figure 7A); type: cell-based, mouse; set-up: IL-9 expression in Th9 cells: unit not given here; conditions: for IL-9 expression in Th9 cells: Figure 7A, individual replicates, one per column (n = 4); for IL-9 production: fatostatin 5 μM, alone or with EpA 10 μM, result in words
Text: (B) Quantitative PCR analysis of Il9 mRNA expression in cells treated as in A (n = 3). (C–F) Flow cytometric analysis of TNF-α production (C), CD69 expression (D), PD-1 expression (E), and mitochondrial membrane potential measured by MitoTracker staining (F) in Th9 cells treated with the indicated conditions (n = 4 for C–E; n = 3 for F). […] Cluster 2 includes genes related to calcium signaling, glycolysis, oxidative phosphorylation, and ERK signaling; cluster 6 includes genes associated with lipid biosynthesis. […] Statistical significance was determined using 1-way ANOVA followed by Tukey’s post hoc test (A–F and H–J). Data are presented as mean ± SEM (A–F and H–J). **P < 0.01, ***P < 0.001, ****P < 0.0001. […] It is left out because it is the vehicle control, not a substance.
T cell polarization was initiated under plate-bound anti-CD3 (2 μg/mL, clone 17A2, BioXCell, catalog BE0002) and soluble anti-CD28 (1 μg/mL, clone 37.51, BioXCell, catalog BE0015-1) stimulation, with the addition of cytokines and neutralizing antibodies specific to each subset. For Th9 cells, these included IL-4 (10 ng/mL, Peprotech, catalog 400-04), TGF-β (1 ng/mL, EPOTO Biotech, catalog HF-2021), anti–IL-12 (5 μg/mL, clone C17.8, BioXCell, catalog BE0051), and anti–IFN-γ (10 μg/mL, clone XMG1.2, BioXCell, catalog BE0055); for Th1 cells, these included IL-12 (10 ng/mL, GenScript, catalog Z03211-50) and anti–IL-4 (5 μg/mL, clone 11B11, BioXCell, catalog BE0045); for Th2 cells, these included IL-4 (50 ng/mL), anti–IFN-γ (20 μg /mL), anti–IL-12 (5 μg/mL), Th17 cells: IL-6 (20 ng/mL, EPOTO Biotech, catalog MF-1006), TGF-β (1 ng/mL), IL-1β (10 ng/mL, Peprotech, catalog AF-211-11B), anti–IFN-γ (10 μg/mL), anti–IL-12 (5 μg/mL), and anti–IL-4 (5 μg/mL); and for Tregs, these included TGF-β (3 ng/mL). After 3 days of initial culture, cells were either collected for downstream assays or continued in extended culture with refreshed cytokines to maintain lineage commitment.
[…] Dead cells were detected using Fixable Viability Dye eFluor 780 (eBioscience, catalog 65-0865).

human Th9 cells = experiment: Human Th9 differentiation, IL-9 by flow cytometry (Figure 8A-B, S9A); type: cell-based; conditions: for intracellular IL-9 expression in human Th9 cells: flow cytometry, Supplemental Figure 9A; for IL-9 production in human CD4⁺ T cells (flow cytometric analysis): Figure 8B, Th9-polarizing conditions, individual replicates, one per column (n = 4)
Experimental: Naive human CD4^+ T cells were isolated from PBMCs obtained from healthy donors using the EasySep Human Naive CD4^+ T Cell Isolation Kit II ([…] Technologies, catalog 17555), according to the manufacturer’s protocol. Isolated T cells were cultured in OptiVitro T Cell Medium SF (Excell Bio, catalog TE000-N022) supplemented with recombinant human IL-2 (100 U/mL, Novoprotein, catalog C013). T cell activation was achieved using plate-bound anti-CD3 (5 μg/mL) and soluble anti-CD28 antibodies (2 μg/mL).
For Th9 polarization, cultures were supplemented with IL-4 (10 ng/mL, PeproTech, catalog AF-200-04), TGF-β (1 ng/mL), and neutralizing anti–IFN-γ monoclonal antibody (10 μg/mL, clone B27, BioXcell, catalog BE0245). After 3 days of initial culture, cells were either collected for downstream assays or continued in extended culture with refreshed cytokines to maintain lineage commitment without antibodies. Th9 cells were collected at days 4, 5, and 6 for subsequent in vitro assays. For adoptive transfer studies, day 4–cultured Th9 cells were washed and prepared for intravenous injection.
Details regarding staining panels (human and mouse), reagents (including clones and catalog numbers), acquisition settings, compensation/controls, and analysis procedures are provided in Supplemental Methods.
MH9A4, Biolegend, Cat. No. 507605, PE/Cy7, clone MH9A4, Biolegend, Cat. No. […]
clone Mab11, Biolegend, Cat. No. 502908), Perforin (APC, clone dG9, Biolegend, Cat.
Flow cytometric acquisition was performed using a BD Fortessa or Cytek Aurora cytometer. Data were analyzed with FlowJo software (v10.8.1 or newer). Fluorescence compensation, isotype-matched controls, and fluorescence-minus-one (FMO) controls were applied as appropriate for multicolor panel validation. […]

| Compound | IL-9 expression in Th9 cells (Th9 cells; single agent) | IL-9 production (Th9 cells) | intracellular IL-9 expression in human Th9 cells (human Th9 cells; replicate 1) [%] | intracellular IL-9 expression in human Th9 cells (human Th9 cells; replicate 2) [%] | intracellular IL-9 expression in human Th9 cells (human Th9 cells; replicate 3) [%] | intracellular IL-9 expression in human Th9 cells (human Th9 cells; replicate 4) [%] | IL-9 production, human EpA-Th9 (human Th9 cells; with fatostatin, result in words) | IL-9 expression in Th9 cells (Th9 cells) | IL-9 production in human CD4⁺ T cells (flow cytometric analysis) (human Th9 cells; Day5) | IL-9 production in human CD4⁺ T cells (flow cytometric analysis) (human Th9 cells; Day6) | IL-9 expression, human Th9 (human Th9 cells; day 5 to day 6, result in words) |
| --- | --- | --- | --- | --- | --- | --- | --- | --- | --- | --- | --- |
| CCCc1cc(-c2nc(-c3ccc(C)cc3)cs2)ccn1 [fatostatin, fatostatin hydrobromide, reference compound] | 25.4 and 26.8 and 28.6 and 27.5 | significantly upregulated IL-9 production | 23.3 | 24.1 | 23.7 | 23.5 | further augmented | – | – | – | – |
| anteiso-C15 Leu7 surfactin [EpA] | 46.6 and 46.1 and 47.5 and 45.4 | further enhanced when combined with EpA | 22 | 24.8 | 22.1 | 24.3 | – | 74.4 and 75.9 and 77.3 and 78.9 | 43.3 and 42.8 and 42.9 and 42 | 34.5 and 32.5 and 32.7 and 34.1 | significantly elevated IL-9 expression |
